Assay results published in PubChem BioAssay AID504581 (National Center for Advancing Translational Sciences (NCATS), 2011).

System: PBS pH 7.4 stability, 37 C, LC-MS/MS, 48 h
Assay: Inhibitors of 12-hLO: PBS Stability Profiling
Details: at 2 µM; stronger effect = higher value
Source text: Assay Provider: Holman, T.R., University of California, Santa Cruz Grant #: MH08128301 Screening Center PI: Austin, C.P. Screening Center: NIH Chemical Genomics Center [NCGC] Human lipoxygenase 12hLO is a member of the closely related lipoxygenase family of enzymes which catalyze the site-specific oxidation of arachidonic acid to various hormone precursor molecules and as such is a candidate for drug development in a variety of disease areas, such as cancer and inflammation. After qHTS, hits were confirmed in follow-up assays, and leads were optimized through SAR. The resulting lead compound was further characterized through a battery ADME-Tox experiments, and this assay describes its stability in PBS buffer. The stability of the lead compound in PBS buffer is tested because this parameter has a significant impact on many ADME-concerned properties of drugs, such as uptake, distribution, transport, and eventually bioavailability.
2microM of compound is incubated in PBS buffer at pH 7; the reference compound is procaine. Compounds are incubated at 37 deg C for the pre-determined time periods and the when aliquots are removed. Samples are analyzed with LC-MS/MS.

With `CC(=O)NC(c1cccs1)c1cc(Br)c2cccnc2c1O` (stereo unspecified) as the compound, how does the percent remaining read?
Its percent remaining is 100%.
